Assay results from ChEMBL document CHEMBL3286179, “Discovery of the Fibrinolysis Inhibitor AZD6564, Acting via Interference of a Protein-Protein Interaction” (ACS Med Chem Lett, 2014).

Key:
[1] = Dissociation constant, pKa of the compound; format: physicochemical
[2] = Total clearance in dog at 3 umol/kg, iv and 6 umol/kg, po; format: ADME, organism-based, Canis lupus familiaris; conditions: in vivo
[3] = Oral bioavailability in rat at 20 umol/kg; format: ADME, organism-based; conditions: in vivo, at 20 µmol/kg
[4] = Drug excretion in rat urine; format: ADME; conditions: in vivo
[5] = Renal clearance in dog at 3 umol/kg, iv and 6 umol/kg, po; format: ADME, organism-based, Canis lupus familiaris, Kidney; conditions: in vivo
[6] = Oral bioavailability in dog at 6 umol/kg; format: ADME, organism-based, Canis lupus familiaris; conditions: in vivo, at 6 µmol/kg
[7] = Drug metabolism in human hepatocytes assessed as glucuronidation on isoxazolone ring; format: ADME, cell-based, Hepatocyte
[8] = Renal clearance in rat at 5 umol/kg, iv and 20 umol/kg, po; format: ADME, organism-based, Kidney; conditions: in vivo
[9] = Metabolic stability in human liver microsomes; format: ADME; conditions: read-out: Stability
[10] = Drug excretion in dog urine; format: ADME, Canis lupus familiaris; conditions: read-out: Drug excretion
Hepatocyte = assay: Metabolic stability in human hepatocytes measured per 10^6 cells; format: ADME, cell-based
[11] = Total clearance in rat at 5 umol/kg, iv and 20 umol/kg, po; format: ADME, organism-based; conditions: in vivo

O=c1cc([C@@H]2CCN[C@H](Cc3ccccc3)C2)o[nH]1
pKa [1]: 4.4

O=c1cc([C@H]2CCN[C@H](Cc3ccccc3)C2)o[nH]1
pKa [1]: 4.9

O=c1cc([C@H]2CCN[C@@H](Cc3ccccc3)C2)o[nH]1
clearance [2]: 2.9 mL/min/kg
bioavailability [3]: 33%
Drug excretion [4]: 25 %ID
CL renal [5]: 0.2 mL/min/kg
bioavailability [6]: 73%
Drug metabolism [7]: metabolite_detected
CL renal [8]: 11 mL/min/kg
microsomal CLint [9]: < 5 µL/min/mg
dose excreted [10]: 7%
Stability (Hepatocyte): < 1 µL/min
clearance [11]: 46 mL/min/kg

CC(C)(C)C[C@H]1C[C@@H](c2cc(=O)[nH]o2)CCN1
clearance [2]: 1.1 mL/min/kg
bioavailability [3]: 39%
Drug excretion [4]: 45 %ID
CL renal [5]: 0.8 mL/min/kg
bioavailability [6]: 53%
Drug metabolism [7]: metabolite_detected
CL renal [8]: 6 mL/min/kg
microsomal CLint [9]: < 5 µL/min/mg
dose excreted [10]: 70%
Stability (Hepatocyte): < 1 µL/min
clearance [11]: 13 mL/min/kg

O=c1cc([C@H]2CCN[C@@H](CCc3ccccc3)C2)o[nH]1
clearance [2]: 1.8 mL/min/kg
bioavailability [3]: 19%
Drug excretion [4]: 25 %ID
CL renal [5]: 0.12 mL/min/kg
bioavailability [6]: 59%
Drug metabolism [7]: metabolite_detected
CL renal [8]: 6 mL/min/kg
microsomal CLint [9]: < 5 µL/min/mg
Stability (Hepatocyte): < 1 µL/min
clearance [11]: 24 mL/min/kg
